Laboratory results published in article PMC5394417, “Investigating the molecular mechanism of positive and negative allosteric modulators in the calcium-sensing receptor dimer” (Scientific Reports, 2017).
Where “and” joins values, the source holds several entries; their conditions need not be identical. Equal values may be shown once.

Biological target: T1, HA-L797A CaSR mutant (Rattus norvegicus, UniProt P48442, L797A)
T1 construct: mGluR5 signal peptide (N); expressed in transfected cells; host or cells: HEK293T
T1 sequence (P48442 20-1079 L797A): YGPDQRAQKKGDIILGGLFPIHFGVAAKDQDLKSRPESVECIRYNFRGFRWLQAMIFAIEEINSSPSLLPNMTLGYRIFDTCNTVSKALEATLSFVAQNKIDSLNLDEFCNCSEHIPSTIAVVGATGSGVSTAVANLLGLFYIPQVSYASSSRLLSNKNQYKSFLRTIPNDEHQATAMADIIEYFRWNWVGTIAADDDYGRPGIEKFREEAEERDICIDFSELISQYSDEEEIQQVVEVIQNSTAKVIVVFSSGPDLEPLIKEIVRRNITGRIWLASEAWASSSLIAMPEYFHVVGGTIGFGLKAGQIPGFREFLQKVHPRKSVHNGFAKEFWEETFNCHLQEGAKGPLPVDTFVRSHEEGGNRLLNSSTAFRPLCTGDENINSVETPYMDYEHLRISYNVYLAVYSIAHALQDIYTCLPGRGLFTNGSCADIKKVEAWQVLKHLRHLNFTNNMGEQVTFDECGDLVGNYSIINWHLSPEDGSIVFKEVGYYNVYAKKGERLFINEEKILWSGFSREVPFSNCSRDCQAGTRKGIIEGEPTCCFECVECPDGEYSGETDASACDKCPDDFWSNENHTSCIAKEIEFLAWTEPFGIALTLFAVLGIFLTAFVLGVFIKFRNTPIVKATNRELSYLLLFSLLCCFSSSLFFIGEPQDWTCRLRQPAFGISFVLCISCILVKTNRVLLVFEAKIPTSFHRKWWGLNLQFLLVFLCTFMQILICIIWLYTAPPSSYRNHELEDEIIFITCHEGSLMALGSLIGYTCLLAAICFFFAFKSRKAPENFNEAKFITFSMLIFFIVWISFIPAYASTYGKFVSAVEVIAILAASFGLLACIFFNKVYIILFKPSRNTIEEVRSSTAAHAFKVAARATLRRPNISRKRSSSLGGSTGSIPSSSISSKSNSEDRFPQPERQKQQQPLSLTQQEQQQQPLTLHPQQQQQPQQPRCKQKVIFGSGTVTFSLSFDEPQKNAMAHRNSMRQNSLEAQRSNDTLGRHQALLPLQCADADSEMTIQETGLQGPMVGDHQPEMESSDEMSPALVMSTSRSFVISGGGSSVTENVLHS
Experiment: IP-One assay, HEK293T transiently transfected
Format: cell-based
Protocol: Human embryonic kidney (HEK) 293T cells were cultured in DMEM supplemented with 10% dFBS and 1% P/S at 37 °C and 5% CO2. 48 h prior to assay, transient transfection was performed using Lipofectamine 2000 as the transfection reagent. White opaque 96-well culture plates (PerkinElmer, Waltham, MA, USA) were used for the ELISA and the TR-FRET dimerization assay, while clear tissue culture treated 96-well plates (Corning, Corning, NY, USA) were used for the IP-One assay. Both plate types were coated with poly-D-lysine before addition of cells and transfection mix. 0.25 μl/well of Lipofectamine 2000 were diluted in 25 μl/well of Opti-MEM and incubated at room temperature (RT) for 5 min. 0.03 μg/well of DNA was diluted in 25 μl/well of Opti-MEM, and subsequently mixed with the Lipofectamine 2000 dilution and incubated 20 min at RT before addition to the plates. Cell suspensions of 170.000 HEK293T cells/mL were prepared in complete growth medium and 100 μl/well (17.000 cells/well) was added to the plates, which were incubated for 48 h at 37 °C and 5% CO2 before performing assays.
Functional activity was measured using the IP-One assay, which is an IP1 accumulation assay. For agonist testing, ligands were prepared in final concentrations in ligand buffer (HBSS, 20 mM HEPES, pH 7.4 supplemented with 20 mM LiCl). Cells were washed once with 100 μl/well of assay buffer (HBSS, 20 mM HEPES, pH 7.4) and 50 μl/well of agonist solution was added after which plates were incubated at 37 °C for 30 min. Subsequently, ligand solutions were removed and cells were washed with 100 μl/well of assay buffer. Cell lysis was performed by addition of 30 μl/well of IP-One Conjugate & Lysis Buffer (Cisbio Bioassays, Codolet, France) and plates were incubated at RT for 30 min. Afterwards, 30 μl/well of assay buffer was added to dilute the cell lysate. 10 μl/well of cell lysate was transferred from the 96-well plate to a 384-well Optiplate and 10 μl/well of detection solution (Assay buffer + 2.5% of anti-IP1 antibody cryptate Terbium conjugate + 2.5% IP1-d2 conjugate (Cisbio Bioassays, Codolet, France)) was also added. The 384-well plate was incubated for 1 h at RT in dark before being measured on an EnVision plate reader (PerkinElmer, Waltham, MA, USA). Upon excitation at 340 nm, emission at 615 nm and 665 nm was measured, and the FRET ratio (665 nm/615 nm) was converted to IP1 concentrations by interpolating values from an IP1 standard curve generated from a provided IP1 calibrator (Cisbio Bioassays, Codolet, France). When testing allosteric modulators, cells were pre-incubated for 30 min at 37 °C with 50 μl/well of ligand buffer supplemented with allosteric modulator and a final concentration of 1% DMSO. Afterwards, the buffer solution was removed and 50 μl/well of agonist solution in ligand buffer supplemented with allosteric modulator and a final concentration of 1% DMSO was added. Plates were incubated for 30 min at 37 °C followed by one wash in 100 μl/well of assay buffer. Cell lysis and detection was performed as described above.

## [Ca+2] [Ca^2+]
Ca^2+ alone
  EC50: 11.7 mM
  Hill coefficient ± S.E.M.: 3.22 ± 0.71
  pEC50 ± S.E.M.: 1.94 ± 0.04
Normalized to maximum response of WT CaSR
  Max ± S.E.M.: 25% and 25 ± 3.5%
